Assay results taken from PubChem BioAssay (NCI).
Several values for one entry are separate records, joined by “and”; a condition that tells them apart may be missing. Equal values may be shown once.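 Cells were grown in 96-well plates and exposed to each compound for 48 hours at five concentrations; endpoints were interpolated linearly between bracketing concentrations, or set to the highest concentration if not reached. The concentration for 50% growth inhibition is given as GI50. Definition used: TGI = concentration required for complete inhibition of growth.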

Key:
Assay in all cases: DTP human tumour cell line panel, 48 h
COLO 205 colon = system: COLO 205 colon
M14 melanoma = system: M14 melanoma
MDA-MB-435 = system: MDA-MB-435
RPMI-8226 leukemia = system: RPMI-8226 leukemia
K-562 leukemia = system: K-562 leukemia
SW-620 colon = system: SW-620 colon
HCT-116 colon = system: HCT-116 colon
TK-10 renal = system: TK-10 renal
NCI-H226 lung = system: NCI-H226 lung
OVCAR-5 ovarian = system: OVCAR-5 ovarian

Row | Compound | TGI (COLO 205 colon) [µM] | TGI (M14 melanoma) [µM] | TGI (MDA-MB-435) [µM] | TGI (RPMI-8226 leukemia) [µM] | TGI (K-562 leukemia) [µM] | TGI (SW-620 colon) [µM] | TGI (HCT-116 colon) | TGI (TK-10 renal) | TGI (NCI-H226 lung) | TGI (OVCAR-5 ovarian) [µM] | GI50 (OVCAR-5 ovarian) [µM]
1 | COc1cc(NS(C)(=O)=O)ccc1Nc1cc[nH]c2ccc3nccc3c12 | 41.4 | 32.2 | 30.1 | 31.7 | 25.7 | 41 | 24.7 µM | 30.3 µM | 36.9 µM | 30.8 | 
2 | CC1(C)O[C@@H]([C@H](O)CO)[C@H](O)[C@@H](C2SCCCS2)O1 | > 100 | > 100 | > 100 | > 100 |  | > 100 | > 100 µM | > 100 µM | > 100 µM | > 100 | 
3 | CCc1ccccc1N=NC(=O)NNc1ccccc1CC |  | 34.7 | 49 | 77.3 | 68.5 | 37.5 | 29 µM | 50.1 µM | 34.4 µM | 29.4 | 
4 | C=CCn1c(-c2ccc([N+](=O)[O-])cc2)cs/c1=N\C(P(=O)(O)O)P(=O)(O)O | > 100 | > 100 | > 100 | > 100 | > 100 | > 100 | > 100 µM | > 100 µM | > 100 µM | > 100 | 
5 | C=CCN(c1cc(OCc2ccccc2)c2[nH]cc(C)c2c1)S(C)(=O)=O | > 100 | > 100 | > 100 | > 100 | > 100 | > 100 | > 100 µM | > 100 µM | > 100 µM | > 100 | 
6 | O=C(O)CCCC(=O)Nn1c(Cc2ccc(Cl)cc2)n[nH]c1=O | > 100 | > 100 | > 100 | > 100 | > 100 | > 100 | > 100 µM | > 100 µM | > 100 µM | > 100 | 
7 | CCOC(=O)c1nc2ccc(C(F)(F)F)cc2nc1NCc1ccc(OC)cc1 | > 100 | > 100 | > 100 | > 100 | > 100 | > 100 | > 100 µM | > 100 µM | > 100 µM | > 100 | 
8 | O=[N+]([O-])c1cccc2nc3ccccc3c(NCCCn3ccnc3[N+](=O)[O-])c12 |  | 0.000256 | 0.000231 | 0.000419 |  | 0.103 | 0.00198 µM and 0.0188 µM | 0.0489 µM and 0.0392 µM | 0.00362 µM and 0.0351 µM |  | 0.0109
9 | COC(=O)/C(C#N)=C(\Nc1ccccc1)N1CCOCC1 | > 100 | > 100 | > 100 | > 100 | > 100 | > 100 | > 100 µM | > 100 µM | > 100 µM | > 100 | 
10 | COC(=O)/C=C1\C(=O)N(C(C)=O)c2ccc(Br)cc21 | 27.8 | 23 | 22 | 6.95 | 44.9 | 25.9 | 19.8 µM | 14.6 µM | 29.4 µM | 32.4 | 
11 | COc1ccccc1NC(=S)N/N=C/c1c(C)n(C)n(-c2ccccc2)c1=O | > 100 | > 100 | > 100 | > 100 | > 100 | > 100 | > 100 µM | > 100 µM | > 100 µM |  | 
12 | O=C(CC(=O)N1N=C(N2CCCCC2)CC1c1ccccc1)Nc1ccccc1 (stereo not drawn) | > 100 | > 100 | > 100 |  |  | > 100 | > 100 µM | > 100 µM | > 100 µM | > 100 | 
13 | COc1ccc(N=N/C(=N/NC(=O)c2ccc(C)cc2)c2ccc(N(CCC#N)CCC#N)cc2OC)cc1 | > 100 | > 100 | > 100 |  | > 100 | > 100 | > 100 µM | > 100 µM | > 100 µM | > 100 | 
14 | CC(C)(O)/C=C\P(=O)(O)O | > 100 | > 100 | > 100 |  | > 100 | > 100 | > 100 µM | > 100 µM | > 100 µM | > 100 | 
15 | CCCCNC(=O)c1cc2c(cc1Cl)Sc1nccn1S2(=O)=O | > 100 | > 100 | > 100 | > 100 | > 100 | > 100 | > 100 µM | > 100 µM |  | > 100 | 
16 | OC(c1ccc(F)cc1)C(F)(F)c1nc2ccccc2o1 (stereo not drawn) | > 100 | > 100 | > 100 | > 100 | 82.3 | > 100 | > 100 µM | > 100 µM | > 100 µM |  | 
17 | CCCNC(=S)/N=C/c1c(O)cc(C)oc1=O | > 100 | > 100 | > 100 |  |  | > 100 | > 100 µM | > 100 µM | > 100 µM | > 100 | 
18 | O=C(O)CN1C=C(C(=O)c2cc3ccccc3n2S(=O)(=O)c2ccccc2)CCC1 | 42.5 | > 100 | > 100 |  | > 100 | > 100 | > 100 µM | > 100 µM | > 100 µM | > 100 | 
19 | c1ccc([P+](CCSCCSCC[P+](c2ccccc2)(c2ccccc2)c2ccccc2)(c2ccccc2)c2ccccc2)cc1 | > 100 | > 100 | > 100 |  | > 100 | > 100 | > 100 µM | > 100 µM | > 100 µM | > 100 | 
20 | CC(NC(=O)/C(=C/c1ccccc1)NC(=O)c1ccccc1)C(=O)O (stereo not drawn) | > 100 | > 100 | > 100 | > 100 | > 100 | > 100 | > 100 µM |  | 99.5 µM | > 100 | 
21 | C[C@@H](c1ccccc1)n1c(N)c(-c2ccccn2)c2ccc([N+](=O)[O-])cc2c1=O | > 100 |  | > 100 |  |  | > 100 | > 100 µM | > 100 µM | > 100 µM |  | 
22 | O=C1NC(N2CCOCC2)=N/C1=C\c1ccc(Cl)cc1 | > 100 | > 100 | > 100 | > 100 |  | > 100 | > 100 µM | > 100 µM | > 100 µM | > 100 | 
23 | CC(=O)C1=C(C)N2C(=NC3=C(CCc4ccccc43)C2c2ccc(F)cc2)S1 (stereo not drawn) | > 100 | > 100 | > 100 | 85 | 90.4 | > 100 | > 100 µM |  | > 100 µM | > 100 | 
